Assay results as given in patent US9072729B2, “Method for treating fibrosis and cancer with imidazolium and imidazolinium compounds” (Agency for Science, Technology and Research, priority 2008, dated 2015).
Read-outs that look alike come from different tables or passages of the source.

What was measured:
Assay type in all cases: cell-based, rat
HSC T6 cells = experiment: MTS based proliferation assay (cytotoxicity) on cultured HSC-T6 cells; conditions: for IC50: read-out: IC50 (toxicity on T6 cells); for inhibition of cell proliferation: 48 h, 10% FBS DMEM
Method: FIG. 1. Cytotoxicity of (a) DBZIM and (b) TDBZIM. […] The signal was normalized against a vehicle control treatment (0 μM of compound). The data were obtained from four independent experiments, and presented as mean and standard error or mean (SEM), *^aP<0.05, *^bP<0.01 and *^cP<0.005.
Firstly we assessed the cytotoxicity of DBZIM and TDBZIM on cultured HSC-T6 cells using a 3-(4,5-dimethylthiazol-2-yl)-5-(3-carboxymethoxyphenyl)-2-(4-sulfophenyl)-2H-tetrazolium (MTS) based proliferation assay kit (Promega, Wis., USA). […]

GPx = experiment: Glutathione peroxidase (GPx) activity assay in treated cells
Method: FIG. 4. Effect of DBZIM and TDBZIM on GPx, CAT, SOD and GST. DBZIM affected (a) GPx activity and (c) CAT activity in a dosage-dependent manner. TDBZIM suppressed (b) GPx activity and (d) CAT activity. (e) DBZIM and (f) TDBZIM had little effect on SOD activity. (g) DBZIM induced GST activity. HSC T6 cells were treated with compounds of various concentrations for 48 h, and homogenized by sonication (60% frequency for 30 s) in PBS (pH 7.4, 1 mM of EDTA) for GPx, GST and CAT assays, or in 20 mM of HEPES buffer containing 1 mM of EGTA, 210 mM of mannitol and 70 mM of sucrose (pH 7.2) for SOD assay. Enzyme activity was normalized against total protein. DBZIM was dissolved in DMSO, and TDBZIM was dissolved in H2O. The data were presented as mean and SEM, N=6, *^aP<0.05, *^bP<0.01, *^cP<0.005, and *^dP<0.0005, when compared to the vehicle control.
Activity levels of three anti-oxidant enzymes, GPx, CAT and SOD, were determined using assay kits from Cayman Chemical. To assay GPx and CAT activities, protein samples were harvested in ice-cold PBS containing 1 mM of EDTA. To assay SOD activity, protein samples were prepared in 20 mM of N-(2-hydroxyethyl)-piperazine-N′-2-ethanesulfonic acid (HEPES) buffer containing 1 mM of ethylene glycol-bis(2-aminoethylether)-N,N,N′,N′-tetraacetic acid (EGTA), 210 mM of mannitol and 70 mM of sucrose. Protein content was determined by BCA assay.
GPx activity was indirectly measured by a coupled reaction with GSH reductase. Oxidized GSH, produced upon reduction of H2O2 by GPx, is recycled to its reduced state by glutathione reductase (GR) and nicotinamide adenine dinucleotide phosphate (NADPH). The oxidation of NAPDH is proportional to the GPx activity, and can be measured as a decrease in absorbance at 340 nm. GPx activity was expressed as nmol/min/mg protein.

SMAA = experiment: Real-time RT-PCR of SMAA mRNA in HSC T6 cells; conditions: for change of SMAA mRNA: 8 h
Method: (§1) FIG. 6. (a) DBZIM and (b) TDBZIM suppressed the mRNA expression of HSC activation markers (GFAP and SMAA) and fibrotic endpoints (col1a1 and fibronectin) in a dosage-dependent manner. […] The ΔΔCt method was used for relative quantification with vehicle control sample being the calibrator. The data were presented as mean and SEM, N=6, *^aP<0.05, *^bP<0.01, *^cP<0.005, and *^dP<0.0005, when compared to the vehicle control. FIG. 7. DBZIM (100 μM) and TDBZIM (100 μM) suppressed (a) GFAP, (b) SMAA, (c) col1a1 and (d) fibronectin mRNA expression in a time-dependent manner. HSC T6 cells were treated with DBZIM and TDBZIM, and assayed after 8, 24 and 48 h. […] FIG. 14. […] (50 μM), […] (50 μM), […] (10 μM) and DBZBIM (100 μM) were dissolved in DMSO with a final DMSO concentration of 0.2% (v/v). DPIM (2 mM), EGCG (25 μM) and DBZIM (100 μM) were dissolved in H2O. β-actin was used as the normalization gene; its expression was constant under the experimental conditions. Relative quantification was normalized against the respective vehicle control. The data were presented as mean and SEM, N=6, *^aP<0.05, *^cP<0.005, and *^dP<0.0005, when compared to the vehicle control. Total RNA was isolated using NucleoSpin RNAII isolation kit ([…], Germany), and quantified by ND-100 spectrophotometer (Nanodrop Technologies, DE, USA). The details of real-time RT-PCR were reported elsewhere (Zhang et al. 2006). Briefly, it was a two-step real-time RT-PCR using Taqman chemistry. Total RNA was first reverse transcribed to cDNA, and real-time PCR was run and detected in ABI 7500 Fast Real-Time PCR System (Applied Biosystems, CA, USA). Primers and probes for rat GFAP, SMAA, collagen Ia1, fibronectin, TGF-β1, TGF-β receptor I (TGFβ RI) and IL-6 were ordered from Taqman's assay-on-demand database. Rat β-actin was used as normalization gene, and its expression level was constant (CT difference was <±0.5) throughout the experimental settings in this study. Relative quantification of target mRNA was calculated using comparative threshold cycle method (ΔΔCT) as described in User Bulletin #2 (ABI Prism 7700 Sequence Detection System). Relative quantification was given by 2^-ΔΔCT to express the up-regulation or down regulation of the target gene under the treatments compared to the control.

fibronectin = experiment: Real-time RT-PCR of fibronectin mRNA in HSC T6 cells; conditions: for suppression of fibronectin mRNA: DPIM 2 mM, TMPHIM 50 μM, DBZIM 100 μM
Method: as §1

[1] = Rattus norvegicus, HSC-T6, HSC T6 cells

1,3,5-tris(4-methyl-imidazolium)-linked cyclophane.3Br [TDBZIM]
IC50 (HSC T6 cells; HSC T6 cells): ~500 µM
inhibition of cell proliferation (HSC T6 cells; TDBZIM 125-200 μM): 13-19%
attenuation of GPx activity (GPx; 10 μM, 48 h): 18%
attenuation of GPx activity (GPx; 50 μM, 48 h): 25%
attenuation of GPx activity (GPx; 100 μM, 48 h): 34%
decrease of SMAA mRNA (SMAA; 1 μM, 48 h): 27%
change of SMAA mRNA (SMAA; 100 μM): no change
transient induction of SMAA mRNA (SMAA; 100 μM, 24 h): up to 79%
decrease of fibronectin mRNA (fibronectin; 1 μM, 48 h): 32%
decrease of fibronectin mRNA (fibronectin; 10 μM, 48 h): 28%
decrease of fibronectin mRNA (fibronectin; 100 μM, 8 h): 25%
decrease of fibronectin mRNA (fibronectin; 100 μM, 24 h): 29%
decrease of fibronectin mRNA (fibronectin; 100 μM, 48 h): 43%

(−)-Epigallocatechin gallate [EGCG, reference compound]
attenuation of GPx activity (references) (GPx; EGCG 25 μM, NAC 5 mM): 53%

[Br-].c1ccc(Cn2cc[n+](Cc3ccccc3)c2)cc1 [DBZIM, 1,3-bisbenzylimidazolium bromide]
inhibition of cell proliferation (HSC T6 cells; DBZIM 250-400 μM): 3.5-8.9%
IC50 (HSC T6 cells; [1]): 1700 µM
attenuation of GPx activity (GPx; 10 μM, 48 h): 10%
attenuation of GPx activity (GPx; 50 μM, 48 h): 10%
enhancement of GPx activity (GPx; 300 μM, 48 h): 15%
change of SMAA mRNA (SMAA; 100 μM): no change
decrease of SMAA mRNA (SMAA; 100 μM, 48 h): 21%
decrease of SMAA mRNA (SMAA; 300 μM, 48 h): 58%
decrease of fibronectin mRNA (fibronectin; 1 μM, 48 h): 19%
decrease of fibronectin mRNA (fibronectin; 100 μM, 8 h): 15%
decrease of fibronectin mRNA (fibronectin; 100 μM, 24 h): 17%
decrease of fibronectin mRNA (fibronectin; 100 μM, 48 h): 25%
decrease of fibronectin mRNA (fibronectin; 300 μM, 48 h): 40%
suppression of fibronectin mRNA (fibronectin; 48 h): 26%

CC(C)n1cc[n+](C(C)C)c1.F[B-](F)(F)F [DPIM, 1,3-diisopropylimidazolium tetrafluoroborate]
IC50 (HSC T6 cells; [1]): 3100 µM
suppression of SMAA mRNA (SMAA; 48 h, DBIM 1 mM, DPIM 2 mM, AMIM 50 μM, TMPHIM 50 μM): 78%
suppression of fibronectin mRNA (fibronectin; 48 h): 48%
